Source: BindingDB's records for doi:10.1021/jm960459x (University of Minnesota, 1996)

Assay: Compound was tested for the binding affinity and selectivity by competitive inhibition of radioligands on opioid delta receptor in guinea pig brain membranes

Structure (SMILES) | Ki
CN(C(=O)Cc1ccc(Cl)c(Cl)c1)[C@H](CN1CCCC1)c1cccc(NC(=O)[C@H](N)CC(=O)O)c1 [(R)-3-Amino-N-[3-((S)-1-{[2-(3,4-dichloro-phenyl)-acetyl]-methyl-amino}-2-pyrrolidin-1-yl-ethyl)-phenyl]-succinamic acid] | 0.573 µM
CN(C(=O)Cc1ccc(Cl)c(Cl)c1)[C@H](CN1CCCC1)c1cccc(NC(=O)[C@@H](N)CC(=O)O)c1 [(S)-3-Amino-N-[3-((S)-1-{[2-(3,4-dichloro-phenyl)-acetyl]-methyl-amino}-2-pyrrolidin-1-yl-ethyl)-phenyl]-succinamic acid] | 1.07 µM
